Experimental data from ChEMBL document CHEMBL1201862, “PubChem BioAssay data set” (2004).
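Each compound was tested at five concentrations against cells in 96-well plates for 48 hours. GI50 is the concentration that inhibits growth by half.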 Calls of active or inactive are those of the source. Cut-off read from the data, not from the text of the source: active = GI50 up to about 1.1 µM and inactive = higher.

How the values were obtained:
Assay in all cases: DTP human tumour cell line panel, 48 h
T47D = system: T47D
PC-3 = system: PC-3
OVCAR-5 = system: OVCAR-5
OVCAR-4 = system: OVCAR-4
MOLT-4 = system: MOLT-4
IGROV-1 = system: IGROV-1
COLO 205 = system: COLO 205
OVCAR-3 = system: OVCAR-3
SK-MEL-28 = system: SK-MEL-28
OVCAR-8 = system: OVCAR-8
LOX IMVI = system: LOX IMVI
A549 = system: A549
EKVX = system: EKVX
A498 = system: A498
CAKI-1 = system: CAKI-1
MDA-MB-435 = system: MDA-MB-435
NCI-H522 = system: NCI-H522
RXF 393 = system: RXF 393
HCC 2998 = system: HCC 2998
MDA-N = system: MDA-N
UO-31 = system: UO-31
SF-268 = system: SF-268
NCI-H226 = system: NCI-H226
KM12 = system: KM12
HCT-15 = system: HCT-15
SNB-19 = system: SNB-19
786-0 = system: 786-0
K562 = system: K562
NCI/ADR-RES = system: NCI/ADR-RES
NCI-H23 = system: NCI-H23
MCF7 = system: MCF7
SF-295 = system: SF-295
ACHN = system: ACHN
SN12C = system: SN12C
BT-549 = system: BT-549
NCI-H460 = system: NCI-H460
UACC-62 = system: UACC-62
CCRF-CEM = system: CCRF-CEM
HCT-116 = system: HCT-116
M14 = system: M14
SNB-75 = system: SNB-75
Hs-578T = system: Hs-578T
SK-MEL-5 = system: SK-MEL-5
UACC-257 = system: UACC-257
SK-OV-3 = system: SK-OV-3
U-251 = system: U-251
HOP-92 = system: HOP-92
HL-60 = system: HL-60
SR = system: SR
HOP-62 = system: HOP-62
Malme-3M = system: Malme-3M
DU-145 = system: DU-145
HT-29 = system: HT-29
MDA-MB-231 = system: MDA-MB-231
SW-620 = system: SW-620
TK-10 = system: TK-10
SF-539 = system: SF-539
SK-MEL-2 = system: SK-MEL-2
RPMI-8226 = system: RPMI-8226

SMILES: c1cc(-c2ccc(-c3ccc(-c4ccc(-c5ccncc5)o4)cc3)o2)ccn1
- GI50 (T47D): 11.4 µM (inactive)
- GI50 (PC-3): 18.7 µM (inactive)
- GI50 (OVCAR-5): 24.9 µM (inactive)
- GI50 (OVCAR-4): 14.9 µM (inactive)
- GI50 (MOLT-4): 6.34 µM (inactive)
- GI50 (IGROV-1): 19.1 µM (inactive)
- GI50 (COLO 205): 16.1 µM (inactive)
- GI50 (OVCAR-3): 23 µM (inactive)
- GI50 (SK-MEL-28): 21.2 µM (inactive)
- GI50 (OVCAR-8): 16.8 µM (inactive)
- GI50 (LOX IMVI): 21.4 µM (inactive)
- GI50 (A549): 18.4 µM (inactive)
- GI50 (EKVX): 22.4 µM (inactive)
- GI50 (A498): > 100 µM (inactive)
- GI50 (CAKI-1): 21.4 µM (inactive)
- GI50 (MDA-MB-435): 15.5 µM (inactive)
- GI50 (NCI-H522): 15.3 µM (inactive)
- GI50 (RXF 393): > 100 µM (inactive)
- GI50 (HCC 2998): 18.2 µM (inactive)
- GI50 (MDA-N): 16.7 µM (inactive)
- GI50 (UO-31): 21.5 µM (inactive)
- GI50 (SF-268): 20.7 µM (inactive)
- GI50 (NCI-H226): 27.4 µM (inactive)
- GI50 (KM12): 15.3 µM (inactive)
- GI50 (HCT-15): 15.1 µM
- GI50 (SNB-19): 18.5 µM (inactive)
- GI50 (786-0): 15.9 µM (inactive)
- GI50 (K562): 15.7 µM (inactive)
- GI50 (NCI/ADR-RES): 31.2 µM (inactive)
- GI50 (NCI-H23): 16.9 µM (inactive)
- GI50 (MCF7): 18.8 µM (inactive)
- GI50 (SF-295): 15 µM (inactive)
- GI50 (ACHN): 24.6 µM (inactive)
- GI50 (SN12C): 22.4 µM (inactive)
- GI50 (BT-549): 15.7 µM (inactive)
- GI50 (NCI-H460): 15.2 µM (inactive)
- GI50 (UACC-62): 17.9 µM (inactive)
- GI50 (CCRF-CEM): 5.68 µM (inactive)
- GI50 (HCT-116): 16.1 µM (inactive)
- GI50 (M14): 17.7 µM (inactive)
- GI50 (SNB-75): 18.9 µM (inactive)
- GI50 (Hs-578T): 64.1 µM (inactive)
- GI50 (SK-MEL-5): 13.2 µM (inactive)
- GI50 (UACC-257): 15.8 µM (inactive)
- GI50 (SK-OV-3): 21.1 µM (inactive)
- GI50 (U-251): 17.5 µM (inactive)
- GI50 (HOP-92): 30.5 µM (inactive)
- GI50 (HL-60): 18.5 µM (inactive)
- GI50 (SR): 24.1 µM (inactive)
- GI50 (HOP-62): 22.1 µM (inactive)
- GI50 (Malme-3M): 19.8 µM (inactive)
- GI50 (DU-145): 15 µM (inactive)
- GI50 (HT-29): 11.8 µM (inactive)
- GI50 (MDA-MB-231): 29 µM (inactive)
- GI50 (SW-620): 28.2 µM (inactive)
- GI50 (TK-10): 17 µM (inactive)

SMILES: CC1C(OS(=O)(=O)c2ccc3nc(S)sc3c2)CC2C3(C)CCC2(C(C)C(=O)O)C(O)C13 (configuration not stated)
- GI50 (T47D): 21.2 µM (inactive)
- GI50 (PC-3): 27.4 µM (inactive)
- GI50 (SF-539): 17.6 µM (inactive)
- GI50 (OVCAR-5): 25.5 µM (inactive)
- GI50 (OVCAR-4): 18.6 µM (inactive)
- GI50 (MOLT-4): 16.9 µM (inactive)
- GI50 (IGROV-1): 11.4 µM (inactive)
- GI50 (COLO 205): 20.7 µM (inactive)
- GI50 (OVCAR-3): 14.5 µM (inactive)
- GI50 (SK-MEL-2): 29.2 µM (inactive)
- GI50 (SK-MEL-28): 26.8 µM (inactive)
- GI50 (OVCAR-8): 20.1 µM (inactive)
- GI50 (A549): 21.7 µM (inactive)
- GI50 (EKVX): 31.3 µM (inactive)
- GI50 (A498): 54.7 µM (inactive)
- GI50 (CAKI-1): 22 µM (inactive)
- GI50 (MDA-MB-435): 17.2 µM (inactive)
- GI50 (NCI-H522): 3.29 µM (inactive)
- GI50 (RXF 393): 21.7 µM (inactive)
- GI50 (HCC 2998): 35.6 µM (inactive)
- GI50 (MDA-N): 22.4 µM (inactive)
- GI50 (UO-31): 17.4 µM (inactive)
- GI50 (SF-268): 27.4 µM (inactive)
- GI50 (NCI-H226): 19.8 µM (inactive)
- GI50 (KM12): 19.9 µM (inactive)
- GI50 (HCT-15): 12.5 µM
- GI50 (SNB-19): 54.1 µM (inactive)
- GI50 (786-0): 20.2 µM (inactive)
- GI50 (K562): 26.2 µM (inactive)
- GI50 (NCI/ADR-RES): 33 µM (inactive)
- GI50 (NCI-H23): 17.9 µM (inactive)
- GI50 (MCF7): 27.6 µM (inactive)
- GI50 (SF-295): 28 µM (inactive)
- GI50 (ACHN): 15.9 µM (inactive)
- GI50 (SN12C): 28 µM (inactive)
- GI50 (BT-549): 24.9 µM (inactive)
- GI50 (NCI-H460): 46.9 µM (inactive)
- GI50 (UACC-62): 21.9 µM (inactive)
- GI50 (RPMI-8226): 11.5 µM (inactive)
- GI50 (CCRF-CEM): 3.85 µM (inactive)
- GI50 (HCT-116): 13.6 µM (inactive)
- GI50 (M14): 32.4 µM (inactive)
- GI50 (Hs-578T): 48.1 µM (inactive)
- GI50 (SK-MEL-5): 14.8 µM (inactive)
- GI50 (UACC-257): 75.7 µM (inactive)
- GI50 (SK-OV-3): 40.7 µM (inactive)
- GI50 (U-251): 16.2 µM (inactive)
- GI50 (HOP-92): 26.6 µM (inactive)
- GI50 (HL-60): 23.7 µM (inactive)
- GI50 (SR): 11.9 µM (inactive)
- GI50 (HOP-62): 29.1 µM (inactive)
- GI50 (Malme-3M): 27.2 µM (inactive)
- GI50 (DU-145): 15.7 µM (inactive)
- GI50 (HT-29): 17.5 µM (inactive)
- GI50 (MDA-MB-231): 21.2 µM (inactive)
- GI50 (TK-10): 44.5 µM (inactive)
